Patent publication US4514404A, “Process for obtaining complex of 3-methoxy-N-methylmorphinan with 7-theophyllineacetic acid (1:2)” (Prodes, S.A., priority 1982, dated 1985)
“And” between values parts separate entries of the source, which are not always exact repeats. Equal entries are not always repeated. “Also recorded” adds a separate entry of the source.

Tests used:
cough = experiment: antitussive activity: cough induced by sulfuric acid atmosphere (Chen et al. 1960), oral; assay type: in vivo, guinea pig (male); conditions: for inhibition of the cough (individual animal) / number of coughs after administration (individual animal) / inhibition of the cough, average value: one hour after administration; for inhibition of the cough (individual animal) / number of coughs after administration (individual animal): individual animals
Protocol: This activity has been compared with the activity of codeine and dextromethorphan by the experimental mode of Chen, J.Y.P. and col. (1960), consisting in exciting guinea pigs subjected to an atmosphere of sulfuric acid to cough.
There are used guinea pig males having a weight of 300-400 grs which are treated in respective lots, with codeine (40 mg/kg.; n=6), dextromethorphan (40 mg/kg.; n=6), theophane (20 mg/kg.; n=5) and theophane (40 mg/kg.; n=6), wherein "n" signifies the number of animals tested in the respective lots and the other data in the parentheses refers to the dosage amount, e.g. 40 mg/kg. The numbers of occurrences of coughing of each animal before and one hour after the oral administration of the drug are measured.
In Table I are detailed the results obtained by the experiment, before and after the administration of the drug as well as the percentage of inhibition of the cough.

rat = experiment: acute toxicity in the rat (Litchfield and Wilcoxon); assay type: in vivo
Description: (§1) The acute toxicity of theophane has been studied orally and i.p. in the mouse and in the rat. The LD50 and the limits of reliance have been determined by the technique of Litchfield and Wilcoxon. Table III summarizes the values of the obtained LD50, as well as of LD0.

cardiovascular system = experiment: cardiovascular activity (technique of Smith, 1961); assay type: in vivo, guinea pig (male); conditions: 0.5 to 10 mg/kg
Description: The cardiovascular activity (technique of Smith, 1961) and the neuropharmacological activity (Irwin test) of the theophane product have been studied respectively in guinea pigs and rats (males).

mouse = experiment: acute toxicity in the mouse (Litchfield and Wilcoxon); assay type: in vivo
Description: as §1

Wistar rats = experiment: subacute toxicity, repeated oral administration over 1 month; assay type: in vivo, rat (Wistar); conditions: 20, 60 and 120 mg/kg/day oral, both sexes
Protocol: The subacute toxicity of theophane has been studied after repeated oral administrations over a period of 1 month in Wistar rats of both sexes. The theophane dosage used was 20 mg/kg/day, 60 mg/kg/day and 120 mg/kg/day. One lot of control animals received only excipient.

[1] = system: tracheal chain of guinea pigs; experiment: bronchodilatory activity in vitro, tracheal chain of guinea pigs (Castillo and de Beer), histamine as bronchoconstrictor; parameters: species or system guinea pig (male); conditions: for time elapsed until obtaining an activity of 50%: 5×10^-4 molar
Description: The bronchodilatory activity "in vitro" of the compound of the present invention has been studied, using the method of tracheal chain of guinea pigs, described by J. C. Castillo and E. J. J. de Beer in Pharmacol.Expt. Therap., 90, 104. The trachea of male guinea pigs having a weight of 250-350 grs were extracted; then the rings are sectioned, always endeavoring that the trachea is bathed by the corresponding perfusion liquid and under oxygenation conditions for joining posteriorly the tracheal rings by means of a silk yarn forming the chain giving response to the drugs to be administered. The chain is placed in the bath of organs fixed to the registering arm of a chymograph. The bath is to be maintained at the constant temperature of 37.5° C. and using, as the liquid, the Krebs-Hanselett solution.
As a bronchoconstrictor drug, there is used histamine at a concentration of 1×10^-5 molar.
The bronchodilatory activity of theophane and theophylline have been compared, for various dosages, and the results obtained are presented in Table II.

[2] = system: auxotrophic S.typhimurium strains; experiment: mutagenic effect (Ames); assay type: cell-based; conditions: six dosages in DMSO, presence and absence of metabolic activation
Description: The possible mutagenic effect of theophane has been evaluated according to the text described by Ames, B. N. and cols (1975) using auxotrophic S.typhimurium strains for the histidine. The product has been studied at six different dosages, dissolved in DMSO, and in the presence and absence of a system of metabolic activation and in front of positive controls.

[3] = system: Sprague-Dawley rats and fetuses of the first generation; experiment: fetal and teratogenous toxicity, oral during organogenesis; assay type: in vivo, rat (Sprague-Dawley); conditions: 20, 65 and 130 mg/kg/day oral
[4] = 40 mg/kg oral, n=6, codeine p < 0.001, dextromethorphan and theophane p < 0.005

COc1ccc2c3c1O[C@H]1[C@@H](O)C=C[C@H]4[C@@H](C2)N(C)CC[C@@]341 [Codeine, reference compound]
inhibition of the cough (individual animal) (cough; 40 mg/kg oral): 71.4% and 100.0% and 81.8% | number of coughs after administration (individual animal) (cough; 40 mg/kg oral): 2 and 0 | inhibition of the cough, average value (cough; [4]): 92.2 ± 12.5%

COc1ccc2c(c1)[C@]13CCCC[C@@H]1[C@H](C2)N(C)CC3 [Dextromethorphan, reference compound]
inhibition of the cough (individual animal) (cough; 40 mg/kg oral): 33.3% and 60.0% and 100.0% and 75.0% and 50.0% | number of coughs after administration (individual animal) (cough; 40 mg/kg oral): 4 and 6 and 0 and 1 | inhibition of the cough, average value (cough; [4]): 69.7 ± 27.0%

COc1ccc2c(c1)[C@@]13CCCC[C@H]1[C@@H](C2)N(C)CC3.Cn1c(=O)c2c(ncn2CC(=O)O)n(C)c1=O.Cn1c(=O)c2c(ncn2CC(=O)O)n(C)c1=O [Theophane, complex of 3-methoxy-N-methylmorphinan with 7-theophyllineacetic acid (1:2)]
inhibition of the cough (individual animal) (cough; 20 mg/kg oral): 33.3% and 28.57% and 66.6% and 60.0% | number of coughs after administration (individual animal) (cough; 20 mg/kg oral): 4 and 10 and 1 and 2 | inhibition of the cough, average value (cough; 20 mg/kg oral, n=5, p < 0.005): 44.35 ± 17.5% | inhibition of the cough (individual animal) (cough; 40 mg/kg oral): 60.0% and 72.2% and 30.7% and 100.0% | number of coughs after administration (individual animal) (cough; 40 mg/kg oral): 2 and 5 and 9 and 0 and 4 | inhibition of the cough, average value (cough; [4]): 70.5 ± 26.6% | antitussive activity (in words) (cough; oral, 20 and 40 mg/kg, guinea pigs): potent antitussive activity; also recorded: antitussive activity which is significant with regard to its proper control | antitussive activity based on the 3-methoxy-N-methylmorphinan content, compared with dextromethorphan (cough; referring to the weight index, 40 mg/kg): greater antitussive activity | LD0 (rat; i.p.): 156.4 mg/kg | LD0 (rat; oral): 204.4 mg/kg | effects on the cardiovascular system (cardiovascular system): do not produce effects on the cardiovascular system | LD0 (mouse; i.p.): 102.3 mg/kg | LD0 (mouse; oral): 182.2 mg/kg | subacute toxicity (mortality, weight, diet consumption, hematic, biochemical, urinary parameters, histopathology) (Wistar rats): null toxicity | bronchodilatory activity in vitro compared with theophylline (in words) [1]: bronchodilatory activity "in vitro" at lower concentrations than theophylline | bronchodilatory activity ([1]; 1 × 10^-3 molar, 1000 µM): 100% | bronchodilatory activity ([1]; 1 × 10^-4 molar, 100 µM): 54.6% | bronchodilatory activity ([1]; 1 × 10^-5 molar, 10 µM): 0% | bronchodilatory activity ([1]; 2 × 10^-4 molar, 200 µM): 37.5% | time elapsed until obtaining an activity of 50% [1]: 280 s | bronchodilatory activity ([1]; 5 × 10^-4 molar, 500 µM): 85.3% | bronchodilatory activity ([1]; 5 × 10^-5 molar, 50 µM): 8.3% | mutagenic activity [2]: does not have any mutagenic activity | reversion increase [2]: No reversion increase could be observed | teratogenous effects [3]: does not induce teratogenous effects | toxic effects to gestating females and their offspring [3]: does not produce toxic effects to the gestating females and their offspring

Cn1c(=O)c2[nH]cnc2n(C)c1=O [Theophylline]
time elapsed until obtaining an activity of 50% [1]: 180 s | inhibition at 1000 µM ([1]; Cavia porcellus, 1 × 10^-3 molar): 100% | inhibition at 100 µM ([1]; Cavia porcellus, 1 × 10^-4 molar): 10.4% | inhibition at 10 µM ([1]; Cavia porcellus, 1 × 10^-5 molar): 0% | inhibition at 200 µM ([1]; Cavia porcellus, 2 × 10^-4 molar): 30% | inhibition at 20 µM ([1]; Cavia porcellus, 2 × 10^-5 molar): 6.25% | inhibition at 500 µM ([1]; Cavia porcellus, 5 × 10^-4 molar): 59.1%
